How the values were obtained:
[1] = molecular target: Metabotropic glutamate receptor 3 (Rattus norvegicus, UniProt P31422); assay: Negative allosteric modulator activity at rat mGluR3 receptor by TI flux assay-based fluorescence analysis
[2] = molecular target: Metabotropic glutamate receptor 2 (Rattus norvegicus, UniProt P31421); assay: Negative allosteric modulator activity at glutamate-stimulated rat mGluR2 receptor expressed in HEK293 cells assessed as inhibition of thallium flux preincubated for 2 mins 20 secs followed by glutamate addition and measured for 2.5 mins by fluorescence based analysis; assay type: cell-based
Chain of Metabotropic glutamate receptor 2 (P31421 whole entry): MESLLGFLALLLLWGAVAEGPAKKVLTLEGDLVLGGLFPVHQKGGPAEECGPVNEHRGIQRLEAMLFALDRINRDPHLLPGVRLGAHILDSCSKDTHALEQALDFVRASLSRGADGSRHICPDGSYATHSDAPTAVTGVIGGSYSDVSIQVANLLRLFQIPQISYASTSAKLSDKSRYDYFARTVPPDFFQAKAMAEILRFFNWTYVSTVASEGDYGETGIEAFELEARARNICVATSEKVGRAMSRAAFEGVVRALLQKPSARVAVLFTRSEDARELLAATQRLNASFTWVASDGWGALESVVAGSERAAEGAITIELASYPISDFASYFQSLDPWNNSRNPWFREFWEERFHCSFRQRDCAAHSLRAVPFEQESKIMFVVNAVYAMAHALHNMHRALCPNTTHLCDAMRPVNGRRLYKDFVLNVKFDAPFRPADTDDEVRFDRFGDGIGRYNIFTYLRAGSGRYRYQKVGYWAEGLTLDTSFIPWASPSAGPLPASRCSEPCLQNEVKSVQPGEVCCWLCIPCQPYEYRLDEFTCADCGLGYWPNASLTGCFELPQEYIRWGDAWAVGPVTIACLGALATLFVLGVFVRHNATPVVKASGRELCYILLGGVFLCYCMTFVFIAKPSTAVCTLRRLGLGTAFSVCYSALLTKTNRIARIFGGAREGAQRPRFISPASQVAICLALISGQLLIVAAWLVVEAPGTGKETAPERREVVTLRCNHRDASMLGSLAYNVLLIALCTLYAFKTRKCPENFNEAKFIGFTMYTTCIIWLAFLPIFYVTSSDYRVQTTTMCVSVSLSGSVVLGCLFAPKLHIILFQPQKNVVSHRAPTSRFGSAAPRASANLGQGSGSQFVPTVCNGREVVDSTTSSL

Chain of Metabotropic glutamate receptor 3 (P31422 whole entry): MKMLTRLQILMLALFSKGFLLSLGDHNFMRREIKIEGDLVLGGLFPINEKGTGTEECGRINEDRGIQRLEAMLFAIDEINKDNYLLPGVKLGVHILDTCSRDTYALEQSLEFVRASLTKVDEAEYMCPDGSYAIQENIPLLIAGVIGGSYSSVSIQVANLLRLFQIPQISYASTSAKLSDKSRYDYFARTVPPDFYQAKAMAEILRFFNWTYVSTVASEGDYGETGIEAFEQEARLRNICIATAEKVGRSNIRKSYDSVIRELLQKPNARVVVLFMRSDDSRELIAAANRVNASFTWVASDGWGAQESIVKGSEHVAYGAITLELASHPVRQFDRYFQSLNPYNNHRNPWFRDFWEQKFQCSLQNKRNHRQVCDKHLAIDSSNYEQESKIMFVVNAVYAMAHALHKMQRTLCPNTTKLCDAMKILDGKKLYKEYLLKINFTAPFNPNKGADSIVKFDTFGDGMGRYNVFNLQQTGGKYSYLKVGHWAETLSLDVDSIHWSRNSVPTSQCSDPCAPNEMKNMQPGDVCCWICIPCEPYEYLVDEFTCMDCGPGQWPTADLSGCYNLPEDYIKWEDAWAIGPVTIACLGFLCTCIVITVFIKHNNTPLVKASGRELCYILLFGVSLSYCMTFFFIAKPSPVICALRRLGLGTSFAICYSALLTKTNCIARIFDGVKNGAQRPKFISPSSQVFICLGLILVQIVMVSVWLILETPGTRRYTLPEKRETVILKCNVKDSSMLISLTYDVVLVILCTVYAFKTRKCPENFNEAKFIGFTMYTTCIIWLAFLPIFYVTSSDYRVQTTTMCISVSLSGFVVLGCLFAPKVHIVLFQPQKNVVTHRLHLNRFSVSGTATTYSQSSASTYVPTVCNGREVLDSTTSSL

Structure (SMILES)	IC50 [1]	IC50 [2]
Cc1ccc(-c2cc3c(cc2-c2ccc(F)cc2)C(=O)NC3)cn1	> 10 µM	0.659 µM
O=C1NCc2cc(C3CCOCC3)c(-c3ccc(F)cc3)cc21	> 10 µM	
O=C1NCc2cc(-c3cnc4[nH]ccc4c3)c(-c3ccc(F)cc3F)cc21	> 10 µM	

The next lines start with the values.

IC50 [1]	IC50 [2]	Structure (SMILES)
> 10 µM		N#Cc1cccc(-c2cc3c(cc2-c2ccc(F)cc2F)C(=O)NC3)c1F
> 10 µM		Cc1ccc(-c2cc3c(cc2-c2ccc(F)cc2)C(=O)NC3)nc1
> 10 µM	0.693 µM	O=C1NCc2cc(-c3cccnc3C3CC3)c(-c3ccc(F)cc3F)cc21

From ChEMBL document CHEMBL6109163, “6-Aryl Isoindolin-1-ones: Novel mGluR2 Negative Allosteric Modulators” (ACS Med Chem Lett, 2025)
